Experimental data taken from patent publication US10508085B2, “Compounds and methods for IDO and TDO modulation, and indications therefor” (Plexxikon Inc., priority 2016, dated 2019).
Read-outs that look alike come from different tables or passages of the source. Blank lines part the entries; values can stand above or below the compound they belong to.

Legend:
[1] = molecular target: T1, human TDO (TDO-expressing HEK293 cells) (Homo sapiens, UniProt P48775); test: Cell based kynurenine assay, TDO-expressing HEK293 cell clones
T1 construct: expressed in transfected cells
T1 sequence (P48775 whole entry): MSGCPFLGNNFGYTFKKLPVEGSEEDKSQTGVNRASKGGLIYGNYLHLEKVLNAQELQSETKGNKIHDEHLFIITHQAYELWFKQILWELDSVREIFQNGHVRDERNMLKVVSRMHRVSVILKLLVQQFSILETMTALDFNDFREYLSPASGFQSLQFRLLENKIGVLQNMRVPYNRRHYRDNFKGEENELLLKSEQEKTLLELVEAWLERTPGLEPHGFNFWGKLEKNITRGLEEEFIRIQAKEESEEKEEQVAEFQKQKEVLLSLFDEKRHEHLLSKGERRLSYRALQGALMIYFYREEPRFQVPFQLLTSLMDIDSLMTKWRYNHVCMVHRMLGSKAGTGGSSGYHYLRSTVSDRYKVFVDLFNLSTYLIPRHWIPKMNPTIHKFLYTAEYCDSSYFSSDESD
Experimental: (§1) Determine Inhibitor Activity Against IDO or TDO in Cell Based Kynurenine Assay
(§2) IDO1-expressing or TDO-expressing HEK293 cell clones are generated upon stable transfection of plasmids expressing human IDO or human TDO under the control of CMV promoter. Cells are selected in DMEM media supplemented with 10% fetal bovine serum and 1 mg/ml G418 at 37° C. in a humidified incubator supplied with 5% CO2. The assays are performed as follows.
(§3) Cells were seeded in a 96 well plate in 50 μL of culture media at a density of 2.5×10^4 per well. Serial dilutions of compounds (in total volume of 50 μL culture media) are added into cells. 4 wells containing 0.2% DMSO treated cells serve as high controls and 4 wells containing media only with 0.2% DMSO serve as low controls. After 24 hours of incubation, the supernatant was transferred to a 384 well reaction plate and the kynurenine level determined. The percentage inhibition at individual concentrations relative to high and low controls is calculated. The data is analyzed by using nonlinear regression to generate IC50 values.

[2] = molecular target: T2, human IDO (IDO1-expressing HEK293 cells) (Homo sapiens, UniProt P14902); test: Cell based kynurenine assay, IDO1-expressing HEK293 cell clones; conditions: IDO1-expressing HEK293 cells, geometric mean, read-out: HEK293 IDO1 Kynurenine GMean IC50 (μM) (Cellular Assay)
T2 construct: expressed in transfected cells
T2 sequence (P14902 whole entry): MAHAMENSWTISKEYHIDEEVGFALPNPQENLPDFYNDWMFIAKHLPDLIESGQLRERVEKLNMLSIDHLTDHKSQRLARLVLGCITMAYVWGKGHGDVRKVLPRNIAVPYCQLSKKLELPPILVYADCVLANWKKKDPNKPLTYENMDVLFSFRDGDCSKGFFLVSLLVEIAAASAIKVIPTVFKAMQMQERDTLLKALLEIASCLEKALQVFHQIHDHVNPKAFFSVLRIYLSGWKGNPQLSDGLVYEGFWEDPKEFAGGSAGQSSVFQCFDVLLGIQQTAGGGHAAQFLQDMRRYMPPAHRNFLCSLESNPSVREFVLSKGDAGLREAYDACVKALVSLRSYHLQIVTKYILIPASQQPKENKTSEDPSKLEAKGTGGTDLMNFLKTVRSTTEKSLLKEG
Experimental: as §1, §2, §3

[3] = molecular target: T3, Human Indoleamine 2,3-dioxygenase (IDO) (Homo sapiens, UniProt P14902); test: Human IDO enzymatic assay (kynurenine level); type: biochemical
T3 construct: His tag (N); made in house; host or cells: E. coli
T3 sequence (P14902 whole entry): as above
In short: (§4)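 IDO conditions: 6 nM His-IDO, 10 μM L-Trp, 5 μM methylene blue, 20 min, RT. TDO conditions: 1 nM His-TDO, 350 μM L-Trp, 0.4 μM methylene blue, 70 min, RT. Both used pH 6.5 phosphate plus ascorbate/catalase, TCA stop at 50° C, kynurenine readout, nonlinear-regression IC50.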

[4] = molecular target: T4, Human Tryptophan 2,3-dioxygenase (TDO) (Homo sapiens, UniProt P48775); test: Human TDO enzymatic assay (kynurenine level); type: biochemical
T4 construct: His tag (N); made in house; host or cells: E. coli
T4 sequence (P48775 whole entry): as the sequence (P48775 whole entry) above
In short: as §4

[5] = TDO-expressing HEK293 cells, 24 hours incubation, geometric mean, read-out: HEK293 TDO Kynurenine GMean IC50 (μM) (Cellular Assay)
[6] = 6 nM IDO, 10 μM L-Trp, geometric mean, read-out: IDO1 GMean: IC50 (μM) (Biochemical Assay)
[7] = 1 nM TDO, 350 μM L-Trp, geometric mean, read-out: TDO GMean: IC50 (μM) (Biochemical Assay)
[8] = cellular assay, HEK293, 24 hours, comparative examples, read-out: hTDO
[9] = biochemical assay, comparative examples, 4,6 versus 5,7 indazole, read-out: IDO1
[10] = biochemical assay, comparative examples, 4,6 versus 5,7 indazole, read-out: TDO

- IC50 [1, 5]: 0.0001 to 10 µM
- IC50 ([2]; 24 hours incubation): 0.0001 to 10 µM
- IC50 [3, 6]: 0.0001 to 10 µM
- IC50 [4, 7]: 0.0001 to 10 µM
SMILES: CC(C)(C1CCS(=O)(=O)CC1)C(O)c1c(F)c(Cl)cc2cn[nH]c12 (stereo not shown) [Compound P-0298, 4-(1-(5-chloro-6-fluoro-1H-indazol-7-yl)-1-hydroxy-2-methylpropan-2-yl)tetrahydro-2H-thiopyran 1,1-dioxide]

- IC50 [1, 5]: 0.0001 to 10 µM
- IC50 ([2]; 24 hours incubation): 0.0001 to 10 µM
- IC50 [3, 6]: 0.0001 to 10 µM
- IC50 [4, 7]: 0.0001 to 10 µM
SMILES: CC1(C(O)c2cc(Cl)cc3cn[nH]c23)CCC(F)(F)CC1 (stereo not shown) [Compound P-0032, (5-chloro-1H-indazol-7-yl)(4,4-difluoro-1-methylcyclohexyl)methanol]

- IC50 [1, 5]: 0.0001 to 10 µM
- IC50 ([2]; 24 hours incubation): 0.0001 to 10 µM
- IC50 [3, 6]: 0.0001 to 10 µM
- IC50 [4, 7]: 0.0001 to 10 µM
SMILES: OC(c1cc(Cl)cc2cn[nH]c12)C1CCCC1 (stereo not shown) [Compound P-0005, (5-chloro-1H-indazol-7-yl)(cyclopentyl)methanol]

- IC50 [1, 5]: 0.0001 to 10 µM
- IC50 ([2]; 24 hours incubation): 0.0001 to 10 µM
- IC50 [3, 6]: 0.0001 to 10 µM
- IC50 [4, 7]: 0.0001 to 10 µM
SMILES: Cc1ccc(NC(=O)N2CCC(C(C)(C)C(O)c3cc(Cl)cc4cn[nH]c34)CC2)cc1Cl (stereo not shown) [Compound P-0394, 4-(1-(5-chloro-1H-indazol-7-yl)-1-hydroxy-2-methylpropan-2-yl)-N-(3-chloro-4-methylphenyl) piperidine-1-carboxamide]

- IC50 [1, 5]: 0.0001 to 10 µM
- IC50 ([2]; 24 hours incubation): 0.0001 to 10 µM
- IC50 [3, 6]: 0.0001 to 10 µM
- IC50 [4, 7]: 0.0001 to 10 µM
SMILES: O=C(NCC(F)(F)F)N1CCC(C(F)(F)C(O)c2c(F)c(Cl)cc3cn[nH]c23)CC1 (stereo not shown) [Compound P-0378, 4-(2-(5-chloro-6-fluoro-1H-indazol-7-yl)-1,1-difluoro-2-hydroxyethyl)-N-(2,2,2-trifluoroethyl) piperidine-1-carboxamide]

- IC50 [1, 5]: 0.0001 to 10 µM
- IC50 ([2]; 24 hours incubation): 0.0001 to 10 µM
- IC50 [3, 6]: 0.0001 to 10 µM
- IC50 [4, 7]: 0.0001 to 10 µM
SMILES: Cc1cccc(NC(=O)N2CCC(C(C)(C)C(O)c3cc(Cl)cc4cn[nH]c34)CC2)c1 (stereo not shown) [Compound P-0181, 4-(1-(5-chloro-1H-indazol-7-yl)-1-hydroxy-2-methylpropan-2-yl)-N-(m-tolyl)piperidine-1-carboxamide]

- IC50 [1, 5]: > 10 µM
- IC50 ([2]; 24 hours incubation): > 10 µM
- IC50 [4, 7]: > 200 µM
SMILES: OC1(c2cc(Cl)cc3cn[nH]c23)CC2(CCNCC2)C1 [Compound P-0020, 2-(5-chloro-1H-indazol-7-yl)-7-azaspiro[3.5]nonan-2-ol]

- IC50 ([2]; 24 hours incubation): > 10 µM
SMILES: CC(C)(C)OC(=O)N1CCC2(CC1)CC(O)(c1cc(Cl)cc3cn[nH]c13)C2 [Compound P-0019, tert-butyl 2-(5-chloro-1H-indazol-7-yl)-2-hydroxy-7-azaspiro[3.5]nonane-7-carboxylate]

- IC50 [1, 8]: 2.94 µM
- IC50 [3, 9]: 0.14 µM
- IC50 [4, 10]: 0.04 µM
SMILES: OC1(c2cc(Cl)cc3cn[nH]c23)CC2(CCC2)C1 [drawing 818]

- IC50 ([2]; 24 hours incubation): > 10 µM
- IC50 [3, 6]: 10 to 100 µM
SMILES: O=S1(=O)CC2(CC(O)(c3cc(Cl)cc4cn[nH]c34)C2)C1 [Compound P-0056, 6-(5-chloro-1H-indazol-7-yl)-6-hydroxy-2-thiaspiro[3.3]heptane 2,2-dioxide]

- IC50 ([2]; 24 hours incubation): 0.0001 to 10 µM
- IC50 [3, 6]: 0.0001 to 10 µM
- IC50 [4, 7]: 0.0001 to 10 µM
SMILES: Cc1ccc2cn[nH]c2c1C(O)C1(C)CCCCC1 (stereo not shown) [Compound P-0015, (6-methyl-1H-indazol-7-yl)(1-methylcyclohexyl)methanol]

Continued, compound first:

SMILES: COC12CCC(C(O)c3c(F)c(Cl)cc4cn[nH]c34)(CC1)CC2 (stereo not shown) [Compound P-0137, (5-chloro-6-fluoro-1H-indazol-7-yl)(4-methoxybicyclo[2.2.2]octan-1-yl)methanol]
- IC50 [1, 5]: 0.0001 to 10 µM
- IC50 ([2]; 24 hours incubation): 0.0001 to 10 µM
- IC50 [3, 6]: 0.0001 to 10 µM
- IC50 [4, 7]: 0.0001 to 10 µM

SMILES: O=C(Nc1ccc(C(F)(F)F)cc1)N1CCC(C(F)(F)C(O)c2cc(Cl)cc3cn[nH]c23)CC1 (stereo not shown) [Compound P-0153, 4-(2-(5-chloro-1H-indazol-7-yl)-1,1-difluoro-2-hydroxyethyl)-N-(4-(trifluoromethyl)phenyl)piperidine-1-carboxamide]
- IC50 [1, 5]: 0.0001 to 10 µM
- IC50 ([2]; 24 hours incubation): 0.0001 to 10 µM
- IC50 [3, 6]: 0.0001 to 10 µM
- IC50 [4, 7]: 0.0001 to 10 µM

SMILES: OC(CC1CCCCC1)c1cccc2cncn12 (stereo not drawn) [Compound P-0079, 2-cyclohexyl-1-(imidazo[1,5-a]pyridin-5-yl)ethan-l-ol]
- IC50 [1, 5]: > 10 µM
- IC50 ([2]; 24 hours incubation): 0.0001 to 10 µM
- IC50 [3, 6]: 0.0001 to 10 µM
- IC50 [4, 7]: 0.0001 to 10 µM

SMILES: CC1(C(O)c2c(Cl)ccc3cncn23)CCCCC1 (stereo not shown) [Compound P-0088, (6-chloroimidazo[1,5-a]pyridin-5-yl)(1-methylcyclohexyl)methanol]
- IC50 [1, 5]: > 10 µM
- IC50 ([2]; 24 hours incubation): 0.0001 to 10 µM
- IC50 [3, 6]: 0.0001 to 10 µM
- IC50 [4, 7]: 0.0001 to 10 µM

SMILES: CC1(C(O)c2cc(C(F)(F)F)cc3cn[nH]c23)CCCCC1 (stereo not shown) [Compound P-0013, (1-methylcyclohexyl)(5-(trifluoromethyl)-1H-indazol-7-yl)methanol]
- IC50 [1, 5]: 0.0001 to 10 µM
- IC50 ([2]; 24 hours incubation): 0.0001 to 10 µM
- IC50 [3, 6]: 0.0001 to 10 µM
- IC50 [4, 7]: 0.0001 to 10 µM

SMILES: CC(C)(C1CCN(C(=O)c2ccc(C(F)(F)F)nc2)CC1)[C@H](O)c1cc(Cl)cc2cn[nH]c12 [Compound P-0537, (S)-(4-(1-(5-chloro-1H-indazol-7-yl)-1-hydroxy-2-methylpropan-2-yl)piperidin-1-yl)(6-(trifluoromethyl)pyridin-3-yl)methanone]
- IC50 ([1]; TDO-expressing HEK293 cells, 24 hours, geometric mean, read-out: HEK293 TDO Kynurenine GMean IC50 (μM) (Cellular Assay)): 0.0001 to 10 µM
- IC50 ([2]; 24 hours): 0.0001 to 10 µM
- IC50 [3, 6]: 0.0001 to 10 µM
- IC50 [4, 7]: 0.0001 to 10 µM

SMILES: CS(=O)(=O)N1CCC(C(O)c2cc(Cl)cc3cn[nH]c23)CC1 (stereo not shown) [Compound P-0283, (5-chloro-1H-indazol-7-yl)(1-(methylsulfonyl)piperidin-4-yl)methanol]
- IC50 [1, 5]: 0.0001 to 10 µM
- IC50 ([2]; 24 hours incubation): > 10 µM
- IC50 [3, 6]: 0.0001 to 10 µM
- IC50 [4, 7]: 0.0001 to 10 µM

SMILES: CC(C)(C1CCC1)C(O)c1c(F)c(Cl)c(F)c2cn[nH]c12 (stereo not shown) [Compound P-0251, 1-(5-chloro-4,6-difluoro-1H-indazol-7-yl)-2-cyclobutyl-2-methylpropan-1-ol]
- IC50 [1, 5]: 0.0001 to 10 µM
- IC50 ([2]; 24 hours incubation): 0.0001 to 10 µM
- IC50 [3, 6]: 0.0001 to 10 µM
- IC50 [4, 7]: 0.0001 to 10 µM

SMILES: OC1(c2cc(Cl)cc3[nH]ncc23)CC2(CCOCC2)C1 [drawing 821]
- IC50 [1, 8]: 0.57 µM
- IC50 [3, 9]: ≥ 200 µM
- IC50 [4, 10]: 0.18 µM

SMILES: OC(c1ccccc1)c1cccc2cncn12 (stereo not shown) [Compound P-0057, imidazo[1,5-a]pyridin-5-yl(phenyl)methanol]
- IC50 ([2]; 24 hours incubation): > 10 µM
- IC50 [3, 6]: 0.0001 to 10 µM
- IC50 [4, 7]: 0.0001 to 10 µM

SMILES: OC(c1cc(Cl)cc2[nH]ncc12)C1CCCCC1 (stereo not shown) [drawing 811]
- IC50 [1, 8]: 0.05 µM
- IC50 [3, 9]: 3.25 µM
- IC50 [4, 10]: 6.06 µM

SMILES: CC(C)(C1CCN(S(C)(=O)=O)CC1)C(O)c1cc(Cl)cc2[nH]ncc12 (stereo not shown) [drawing 815]
- IC50 [1, 8]: 0.01 µM
- IC50 [3, 9]: 0.7 µM
- IC50 [4, 10]: 0.1 µM

SMILES: COC12CCC(C(O)c3cc(Cl)cc4[nH]ncc34)(CC1)CC2 (stereo not shown) [drawing 813]
- IC50 [1, 8]: 0.17 µM
- IC50 [3, 9]: 6.6 µM
- IC50 [4, 10]: 0.16 µM

SMILES: CS(=O)(=O)N1CCC(O)(c2cc(Cl)cc3cn[nH]c23)CC1 [Compound P-0023, 4-(5-chloro-1H-indazol-7-yl)-1-(methylsulfonyl)piperidin-4-ol]
- IC50 ([2]; 24 hours incubation): > 10 µM

SMILES: CS(=O)(=O)N1CC(O)(c2cc(Cl)cc3cn[nH]c23)C1 [Compound P-0024, 3-(5-chloro-1H-indazol-7-yl)-1-(methylsulfonyl)azetidin-3-ol]
- IC50 ([2]; 24 hours incubation): > 10 µM

SMILES: OC1(c2cc(Cl)cc3[nH]ncc23)CC2(CCC2)C1 [drawing 819]
- IC50 [1, 8]: 0.03 µM
- IC50 [3, 9]: 22 µM
- IC50 [4, 10]: 0.04 µM
